In PMC12143348, “Rapid and reversible fluorescent probe enables repeated snapshot imaging of AMPA receptors during synaptic plasticity” (Science Advances, 2025):
“Also recorded” adds a separate entry of the source.

What was measured:
[1] = target: T1, GluA2flip(Q) (Mus musculus, UniProt P23819, DEL765-802); assay: Concentration-dependent binding of fluorophore-ligand conjugates, confocal live imaging of HEK293T cells expressing GluA2
T1 construct: expressed in transfected cells; host or cells: HEK293T
T1 sequence (P23819 with tags, fused parts or gaps isoform P23819-4 DEL765-802): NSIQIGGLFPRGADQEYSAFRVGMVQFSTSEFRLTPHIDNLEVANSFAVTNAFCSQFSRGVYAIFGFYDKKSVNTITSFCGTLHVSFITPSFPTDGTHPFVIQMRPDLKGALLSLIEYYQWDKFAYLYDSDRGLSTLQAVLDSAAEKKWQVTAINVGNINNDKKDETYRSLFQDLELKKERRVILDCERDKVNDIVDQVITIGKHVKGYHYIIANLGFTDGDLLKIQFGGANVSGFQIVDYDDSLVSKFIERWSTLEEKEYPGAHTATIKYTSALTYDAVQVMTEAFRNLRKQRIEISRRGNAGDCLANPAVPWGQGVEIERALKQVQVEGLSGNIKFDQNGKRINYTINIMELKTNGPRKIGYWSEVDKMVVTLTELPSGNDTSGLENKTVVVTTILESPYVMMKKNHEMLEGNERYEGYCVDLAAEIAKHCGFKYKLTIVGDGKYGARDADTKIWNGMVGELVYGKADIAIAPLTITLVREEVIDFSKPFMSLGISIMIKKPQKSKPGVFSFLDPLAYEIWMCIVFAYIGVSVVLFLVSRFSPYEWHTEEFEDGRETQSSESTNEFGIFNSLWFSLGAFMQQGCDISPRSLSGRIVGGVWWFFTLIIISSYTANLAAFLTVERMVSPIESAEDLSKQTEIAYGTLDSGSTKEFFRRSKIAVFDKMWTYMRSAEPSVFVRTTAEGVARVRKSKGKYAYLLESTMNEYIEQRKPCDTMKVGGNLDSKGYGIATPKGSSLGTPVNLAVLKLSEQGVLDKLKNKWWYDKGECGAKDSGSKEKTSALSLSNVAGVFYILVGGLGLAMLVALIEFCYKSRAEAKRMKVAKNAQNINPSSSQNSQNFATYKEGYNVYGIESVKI

[2] = pH-dependency of fluorescent intensity in GTA buffer (spectrofluorophotometer); assay type: physicochemical; details: 2 µM probe in GTA buffer pH 4–10, normalized to pH 10
Experimental: Evaluation of the affinity of PFQX-amine
HEK293T cells were co-transfected with GluA2 flip(Q)-3’UTR and mCherry-F as a transfection marker. After washing the cells with HBS, 30 nM PFQX1(AF488) was added to the dish. Then, PFQX-amine in HBS was step-wisely added to the dish to a final […]
performed with confocal microscopy. Cell surface fluorescent intensity was quantified from the line scans of transfection marker positive cells calculated by ZEN blue software and calculated with subtraction of background. The membrane intensity was fitted with KaleidaGraph to calculate the IC50 value using the following equation:a + (b-a)/(1+(x/c)^d). The Ki value was calculated using the Cheng-Prusoff equation: Ki = IC50/(1+[S]/K d). In the equation, [S] and Kd were the concentration and dissociation constant of PFQX1(AF488), respectively. pH-dependency of fluorescent intensity
Fluorescent intensity was determined by spectrofluorophotometer RF-6000 (Shimadzu). […]
glutaric acid, 0.1 M Tris, 0.1 M 2-amino-2-methyl-1,3-propanediol) to a final concentration of 2 µM. pH value of GTA buffer was adjusted to 4, 5, 6, 7, 8, 9, and 10.
Fluorescent intensity was normalized by the intensity at pH 10.
For the evaluation in cells, HEK293T cells expressing GluA2 or primary cultured hippocampal neurons were used. […]

[3] = tested on: AMPARs; assay: Kinetics and reversibility of PFQX1(AF488) binding in cultured hippocampal neurons; design: species or system mouse; details: 100 nM probe
Experimental: A cloning ring (16 mm φ) was placed on the dish to accelerate the diffusion of the probe solution. After the dish was set on the stage, the cells were treated with 100 nM PFQX1(AF488) and imaged at specified time points by confocal microscopy.
For evaluating reversibility, stained cells were observed by confocal microscopy as the first image. Then, the cells were washed three times with Hepes-based ACSF and scanned as the wash image. After removal of the buffer, 100 nM PFQX1(AF488) was re-treated, and the cells were scanned as the second image. To quantify the fluorescence intensity of spines, the average signal intensity of ROIs set on spines was calculated by ZEN blue software after subtracting background fluorescence.

[4] = target: GluA1 (Mus musculus, UniProt P23818); assay: Concentration-dependent binding of PFQX1(AF488), confocal live imaging of HEK293T cells expressing GluA1; details: n = 3, mean ± s.e.m., read-out: Kd / Affinity of PFQX1(AF488) to GluA1
Sequence of GluA1 (P23818 19-907): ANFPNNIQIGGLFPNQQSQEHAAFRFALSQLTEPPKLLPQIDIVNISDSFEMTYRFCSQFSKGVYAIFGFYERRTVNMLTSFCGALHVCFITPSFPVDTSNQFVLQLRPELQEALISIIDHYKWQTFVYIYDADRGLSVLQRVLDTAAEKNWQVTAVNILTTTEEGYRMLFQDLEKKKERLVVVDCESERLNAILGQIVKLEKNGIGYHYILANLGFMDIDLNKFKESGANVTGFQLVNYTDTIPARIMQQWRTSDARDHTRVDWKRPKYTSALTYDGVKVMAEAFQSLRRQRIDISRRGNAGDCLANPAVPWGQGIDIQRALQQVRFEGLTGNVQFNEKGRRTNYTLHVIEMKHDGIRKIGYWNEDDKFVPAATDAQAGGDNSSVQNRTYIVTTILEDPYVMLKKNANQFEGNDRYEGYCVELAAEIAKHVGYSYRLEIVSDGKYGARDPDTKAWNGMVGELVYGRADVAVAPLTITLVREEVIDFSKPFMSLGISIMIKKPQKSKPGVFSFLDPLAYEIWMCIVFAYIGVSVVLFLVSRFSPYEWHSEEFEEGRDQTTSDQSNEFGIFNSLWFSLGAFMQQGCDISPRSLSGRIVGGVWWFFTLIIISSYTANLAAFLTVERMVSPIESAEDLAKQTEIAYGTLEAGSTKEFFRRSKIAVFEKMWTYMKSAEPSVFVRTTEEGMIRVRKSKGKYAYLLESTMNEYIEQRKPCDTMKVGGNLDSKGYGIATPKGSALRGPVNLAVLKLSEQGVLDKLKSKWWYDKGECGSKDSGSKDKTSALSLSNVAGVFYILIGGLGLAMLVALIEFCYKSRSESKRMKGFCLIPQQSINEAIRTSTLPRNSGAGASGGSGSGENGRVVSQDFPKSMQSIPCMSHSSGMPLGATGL
Experimental: (§1) HEK293T cells were cotransfected with plasmids for AMPAR [5′UTR-GluA1^flip(R)-3′UTR, GluA2^flip(Q)-3′UTR, GluA3^flip(Q) (Y454A/R461G), and GluA4^flip(Q)], kainate receptor [GluK2(Q)], auxiliary subunits, or the control vector and transfection marker (EFGP-F or mCherry-F). Fluorophore-ligand conjugates were diluted in Hepes-buffered saline (HBS) buffer [20 mM Hepes (pH 7.4), 107 mM NaCl, 6 mM KCl, 1.2 mM MgSO4, 2 mM CaCl2, and 11.5 mM glucose] and added to the cells. Confocal live imaging was performed with LSM900 (Carl Zeiss) equipped with a 63×, numerical aperture (NA) = 1.4 oil-immersion objective. Fluorescence images were acquired by excitation at 405, 488, 561, or 640 nm derived from diode lasers.
(§2) For evaluating the concentration dependency of fluorophore-ligand conjugates, 0.1 nM probe in HBS was added to the dish. Then, probes in HBS were added stepwise to the dish to a final concentration of 0.3, 1, 3, 10, 30, 100, 300, 1000, and 3000 nM. Cell surface fluorescence intensity was quantified from the line scans of transfection marker positive cells and calculated with subtraction of background by ZEN blue software (Carl Zeiss). The membrane intensity was fitted with KaleidaGraph (Synergy software) to calculate the equilibrium constant value using the following equation: a + (b − a)/(1 + (x/c)^d). The equilibrium constant is regarded as the Kd in this study.

[5] = target: T2, GluA2flip(R) + TARP γ7 (Mus musculus, UniProt P23819, DEL765-802/Q607R); assay: Concentration-dependent binding of PFQX1(AF488) to GluA2flip(R) expressed with TARP γ7 in HEK293T cells; details: n = 3–4, read-out: Kd / Affinity of PFQX1(AF488) to GluA2flip(R) with TARP γ7
T2 construct: expressed in transfected cells; host or cells: HEK293T
T2 sequence (P23819 with tags, fused parts or gaps isoform P23819-4 Q607R/DEL765-802): as the sequence (P23819 with tags, fused parts or gaps isoform P23819-4 DEL765-802) above, with Q583R counted along it
T2 sequence (P62956 whole entry partner): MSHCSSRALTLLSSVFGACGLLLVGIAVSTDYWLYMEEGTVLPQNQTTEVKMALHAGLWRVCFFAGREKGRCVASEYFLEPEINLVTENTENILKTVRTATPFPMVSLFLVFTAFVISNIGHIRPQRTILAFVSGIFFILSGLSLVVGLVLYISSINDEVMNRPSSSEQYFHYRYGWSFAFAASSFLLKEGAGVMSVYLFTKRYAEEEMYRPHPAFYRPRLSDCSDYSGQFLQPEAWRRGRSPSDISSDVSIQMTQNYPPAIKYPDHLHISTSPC
Experimental: HEK293T cells (American Type Culture Collection) were cultured in Dulbecco’s modified Eagle’s medium (DMEM)–GlutaMAX (Invitrogen) supplemented with 10% fetal bovine serum (FBS) (Sigma-Aldrich), penicillin (100 U ml^−1), and streptomycin (100 μg ml^−1) and incubated in a 5% CO2 humidified chamber at 37°C. Cells were transfected with a plasmid using Lipofectamine 3000 (Invitrogen) according to the manufacturer’s instructions. Twenty-four hours after transfection, the cells were seeded on glass-bottom dishes coated with poly-L-lysine solution and incubated for 24 hours except for GluA4, TARP γ7, and GluK2. For GluA4, TARP γ7, and GluK2 expression, the cells were used 24 hours after transfection. […]
HEK293T cells were cotransfected with plasmids for AMPAR [5′UTR-GluA1^flip(R)-3′UTR, GluA2^flip(Q)-3′UTR, GluA3^flip(Q) (Y454A/R461G), and GluA4^flip(Q)], kainate receptor [GluK2(Q)], auxiliary subunits, or the control vector and transfection marker (EFGP-F or mCherry-F). […] Fluorescence images were acquired by excitation at 405, 488, 561, or 640 nm derived from diode lasers.
For evaluating the concentration dependency of fluorophore-ligand conjugates, 0.1 nM probe in HBS was added to the dish. […] Cell surface fluorescence intensity was quantified from the line scans of transfection marker positive cells and calculated with subtraction of background by ZEN blue software (Carl Zeiss). […]

[6] = target: T3, GluA3 (Y454A/R461G) (Mus musculus, UniProt Q9Z2W9, R461G/Y454A); assay: Concentration-dependent binding of PFQX1(AF488), confocal live imaging of HEK293T cells expressing GluA3; details: n = 3, read-out: Kd / Affinity of PFQX1(AF488) to GluA3
T3 construct: expressed in transfected cells; host or cells: HEK293T
T3 sequence (Q9Z2W9 23-888 Y454A/R461G): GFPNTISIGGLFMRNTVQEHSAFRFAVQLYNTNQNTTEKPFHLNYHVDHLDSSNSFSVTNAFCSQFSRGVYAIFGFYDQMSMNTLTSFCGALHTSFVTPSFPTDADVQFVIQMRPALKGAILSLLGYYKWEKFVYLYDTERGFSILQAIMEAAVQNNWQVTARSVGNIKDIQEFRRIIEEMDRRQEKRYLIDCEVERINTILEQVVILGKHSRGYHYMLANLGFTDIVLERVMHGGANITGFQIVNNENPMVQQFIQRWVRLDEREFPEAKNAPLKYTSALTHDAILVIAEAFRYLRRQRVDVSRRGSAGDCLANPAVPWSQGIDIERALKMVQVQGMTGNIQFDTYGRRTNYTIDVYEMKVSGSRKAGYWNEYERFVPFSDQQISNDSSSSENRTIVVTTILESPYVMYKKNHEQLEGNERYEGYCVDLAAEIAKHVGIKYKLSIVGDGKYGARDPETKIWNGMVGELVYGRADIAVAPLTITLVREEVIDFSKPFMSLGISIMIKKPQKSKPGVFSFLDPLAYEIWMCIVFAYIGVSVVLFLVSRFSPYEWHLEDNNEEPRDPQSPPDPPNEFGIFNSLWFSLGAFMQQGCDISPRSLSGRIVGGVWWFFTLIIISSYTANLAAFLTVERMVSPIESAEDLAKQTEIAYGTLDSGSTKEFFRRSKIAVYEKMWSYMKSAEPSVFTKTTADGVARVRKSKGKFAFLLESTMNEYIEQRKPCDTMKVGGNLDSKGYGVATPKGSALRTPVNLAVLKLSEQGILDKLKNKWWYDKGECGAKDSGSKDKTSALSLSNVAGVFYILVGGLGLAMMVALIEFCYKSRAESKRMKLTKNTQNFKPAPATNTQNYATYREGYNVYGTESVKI
Experimental: as §1, §2

[7] = target: T4, GluA4 (Mus musculus, UniProt Q9Z2W8); assay: Concentration-dependent binding of PFQX1(AF488), confocal live imaging of HEK293T cells expressing GluA4; details: n = 3, read-out: Kd / Affinity of PFQX1(AF488) to GluA4
T4 construct: expressed in transfected cells; host or cells: HEK293T
T4 sequence (Q9Z2W8 21-902): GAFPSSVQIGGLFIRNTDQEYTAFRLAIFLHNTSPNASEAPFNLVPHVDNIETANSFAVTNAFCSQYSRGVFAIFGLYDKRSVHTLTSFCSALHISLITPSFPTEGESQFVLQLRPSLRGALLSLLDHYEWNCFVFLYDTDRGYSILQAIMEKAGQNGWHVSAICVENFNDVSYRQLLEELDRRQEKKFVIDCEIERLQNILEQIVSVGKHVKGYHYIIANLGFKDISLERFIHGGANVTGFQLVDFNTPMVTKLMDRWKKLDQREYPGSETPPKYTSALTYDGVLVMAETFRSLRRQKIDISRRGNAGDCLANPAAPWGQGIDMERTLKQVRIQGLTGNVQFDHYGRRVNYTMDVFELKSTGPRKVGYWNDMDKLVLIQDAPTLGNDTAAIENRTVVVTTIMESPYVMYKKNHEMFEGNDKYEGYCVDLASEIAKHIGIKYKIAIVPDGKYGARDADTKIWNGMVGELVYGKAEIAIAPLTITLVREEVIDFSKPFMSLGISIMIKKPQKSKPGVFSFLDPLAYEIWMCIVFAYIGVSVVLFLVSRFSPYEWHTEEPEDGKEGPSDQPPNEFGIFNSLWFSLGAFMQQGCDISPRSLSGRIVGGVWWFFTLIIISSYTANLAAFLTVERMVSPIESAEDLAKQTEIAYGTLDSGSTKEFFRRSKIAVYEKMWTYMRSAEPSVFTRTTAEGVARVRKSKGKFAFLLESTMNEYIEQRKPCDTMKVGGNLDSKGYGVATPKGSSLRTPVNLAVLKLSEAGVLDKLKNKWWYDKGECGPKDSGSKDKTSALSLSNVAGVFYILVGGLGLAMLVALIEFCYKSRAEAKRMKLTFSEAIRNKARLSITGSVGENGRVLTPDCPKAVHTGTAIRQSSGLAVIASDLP
Experimental: as §1, §2

cell-surface fluorescence / affinity to AMPARs (in words) ([1]; HEK293T cells expressing GluA2): high affinity | Kd ([1]; HEK293T cells expressing GluA2flip(Q), cell-surface fluorescence, mean ± SEM, n = 3, read-out: dissociation constant (Kd) / Affinity to GluA2): 37.2 ± 9.8 nM | reversibility of binding (medium exchange) [3]: easily removed by medium exchange | time to saturation of fluorescent signals after probe addition [3]: 10 s | Kd [4]: 78.7 ± 15.4 nM | Kd [5]: 118 ± 44.7 nM | Kd [6]: 30.6 ± 7 nM | Kd [7]: 20.2 ± 1.2 nM
SMILES: N=c1ccc2c(-c3ccc(C(=O)NCc4ccn(-c5cc6c(cc5C(F)(F)F)[nH]c(=O)c(=O)n6CC(=O)O)c4)cc3C(=O)O)c3ccc(N)c(S(=O)(=O)O)c3oc-2c1S(=O)(=O)O [PFQX1(AF488)]
pH dependency of the fluorescence intensity [2]: relatively unaffected at pH 5 to 10; also recorded: pH-independent manner in the pH 5 to 10 range
